The NIST ThermoML archive (doi:10.1021/acs.jced.6b00261)

Conditions: Liquid, Frequency=8 MHz, Pulse-echo method

C[Si]1(C)O[Si](C)(C)O[Si](C)(C)O[Si](C)(C)O1 [octamethylcyclotetrasiloxane]
Conditions	speed of sound [m/s]
299.67 K, 14920 kPa	1006.8
299.79 K, 130 kPa	911.09
299.8 K, 520 kPa	913.77
299.81 K, 980 kPa	916.96
299.81 K, 1500 kPa	920.51
299.82 K, 1980 kPa	923.9
299.83 K, 3440 kPa	933.79
299.85 K, 6010 kPa	950.89
300.15 K, 10240 kPa	978.63
349.96 K, 26230 kPa	939.02
349.98 K, 14970 kPa	866.97
350 K, 10200 kPa	832.31
350.03 K, 6210 kPa	800.86
350.04 K, 1960 kPa	764.8
350.04 K, 3530 kPa	778.49
350.05 K, 960 kPa	755.62
350.05 K, 1480 kPa	760.43
350.06 K, 530 kPa	751.64
350.07 K, 120 kPa	747.75
350.35 K, 22660 kPa	915.86
399.62 K, 19680 kPa	784.97
399.63 K, 15100 kPa	749.46
399.64 K, 6070 kPa	667.98
399.64 K, 10120 kPa	706.83
399.68 K, 3610 kPa	641.86
399.69 K, 19290 kPa	782.02
399.7 K, 510 kPa	605.91
399.7 K, 1030 kPa	612.25
399.7 K, 1460 kPa	617.43
399.7 K, 2040 kPa	624.18
399.71 K, 120 kPa	600.99
449.63 K, 960 kPa	475.36
449.64 K, 130 kPa	461.18
449.64 K, 500 kPa	467.67
449.69 K, 1960 kPa	491.86
449.7 K, 1490 kPa	484.22
449.77 K, 3600 kPa	516.36
449.87 K, 5900 kPa	547.45
450 K, 10040 kPa	596.17
450.19 K, 15080 kPa	646.97
450.23 K, 16420 kPa	659.13
499.88 K, 3480 kPa	398.42
499.88 K, 6030 kPa	444.06
499.91 K, 2030 kPa	367.4
499.92 K, 330 kPa	321.35
499.92 K, 1490 kPa	354.75
499.93 K, 11150 kPa	515.95
499.94 K, 520 kPa	329.04
500 K, 10650 kPa	509.56
549.54 K, 5510 kPa	338.9
549.55 K, 5070 kPa	329.01
549.56 K, 4550 kPa	317.1
549.61 K, 3880 kPa	300.55
549.97 K, 6640 kPa	364.29
